In the supplement of paper PMC10307832:

Assays:
Assay in all cases: relative viability (nuclei count vs DMSO), 5 days (fraction); higher = more cells survive
[1] = compound: CCC1=CN=CN=C1N2CCN(CC2)CC3=NC4=C(N3)C=C(C=C4)C(F)(F)F + COc1cccc2cc(-c3nc([C@H]4CC[C@H](C(=O)O)CC4)n4ncnc(N)c34)[nH]c12 [OSI-027] (partner 0.5 µM)
Summary of the method: (§1)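 Nuclei were stained with Hoechst during a one-step fixation (final 0.05% Triton X-100, 1% formaldehyde, 1 ug/ml Hoechst) carried out 5 days after dosing, then counted on 4× images. The cells, lung cancer lines in 1536-well plates, had been dosed by pin tool the day after seeding with one drug alone or a fixed anchor-drug dose plus five library-drug doses (not always all listed) in √10 steps. Relative viability is the nuclei count in treated wells divided by that in vehicle wells, and each value is the median of duplicate plates.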

[2] = compound: CCC1=CN=CN=C1N2CCN(CC2)CC3=NC4=C(N3)C=C(C=C4)C(F)(F)F + Nc1ncn([C@H]2C[C@H](O)[C@@H](CO)O2)c(=O)n1 [Decitabine] (partner 2 µM)
Summary of the method: as §1

[3] = compound: CCn1c(-c2nonc2N)nc2cnc(Oc3cccc(NC(=O)c4ccc(OCCN5CCOCC5)cc4)c3)cc21 + Nc1ncn([C@H]2C[C@H](O)[C@@H](CO)O2)c(=O)n1 [Decitabine] (partner 2 µM)
Summary of the method: as §1

[4] = compound: N=C1NC(=O)/C(=C/c2ccc(O)cc2)S1 [Mirin] + COc1cc2c(Oc3ccc(NC(=O)C4(C(=O)Nc5ccc(F)cc5)CC4)cc3F)ccnc2cc1OCCCN1CCOCC1 [Foretinib] (partner 0.25 µM)
Summary of the method: as §1

| Cell Line | relative viability ([1]; first compound 0.04 µM) | relative viability ([1]; first compound 0.1265 µM) | relative viability ([1]; first compound 0.4 µM) | relative viability ([1]; first compound 1.265 µM) | relative viability ([1]; first compound 4 µM) | relative viability ([2]; first compound 0.04 µM) | relative viability ([2]; first compound 0.1265 µM) | relative viability ([2]; first compound 0.4 µM) | relative viability ([2]; first compound 1.265 µM) | relative viability ([2]; first compound 4 µM) | relative viability ([3]; first compound 0.04 µM) | relative viability ([3]; first compound 0.1265 µM) | relative viability ([3]; first compound 0.4 µM) | relative viability ([3]; first compound 1.265 µM) | relative viability ([3]; first compound 4 µM) | relative viability ([4]; first compound 0.25 µM) | relative viability ([4]; first compound 2.5 µM) | relative viability ([4]; first compound 7.906 µM) | relative viability ([4]; first compound 25 µM) | relative viability ([4]; first compound 0.7906 µM) |
| --- | --- | --- | --- | --- | --- | --- | --- | --- | --- | --- | --- | --- | --- | --- | --- | --- | --- | --- | --- | --- |
| HCC-366 | 0.789 | 0.898 | 0.939 | 0.297 | 0.911 | 0.356 | 0.288 | 0.317 | 0.307 | 0.353 | 0.342 | 0.338 | 0.482 | 0.108 | 0.0747 | 0.855 | 0.888 | 0.997 | 0.869 |  |
| HCC-827 | 0.829 | 0.69 | 0.719 |  | 0.673 | 0.504 | 0.286 | 0.34 | 0.307 | 0.357 | 0.343 | 0.397 | 0.328 | 0.305 | 0.318 | 1.03 | 1.06 | 1.06 | 1.23 | 1.08 |
| HOP-62 | 0.81 | 0.794 | 0.756 | 0.757 | 0.85 | 0.185 | 0.199 | 0.214 | 0.249 | 0.193 | 0.226 | 0.215 | 0.23 | 0.211 | 0.202 | 1.17 | 1.11 | 1.1 | 1.21 | 1.24 |
| IA-LM |  |  |  |  |  |  |  |  |  |  |  |  |  |  |  | 1.12 | 1.23 | 0.757 | 1.09 | 1.07 |
| LC-2-ad | 0.826 | 0.908 | 0.913 | 0.69 | 0.791 | 0.929 | 0.816 | 0.792 | 0.774 | 0.768 | 0.769 | 0.755 | 0.818 | 0.642 | 0.615 | 0.97 | 0.988 | 0.907 | 0.759 | 1 |
| LCLC-97TM1 | 0.477 | 0.582 | 0.452 | 0.506 | 0.577 | 0.24 | 0.205 | 0.225 | 0.227 | 0.215 | 0.258 | 0.235 |  | 0.232 | 0.258 | 0.762 | 0.89 | 0.991 | 0.703 | 0.848 |
| LCLC-103H | 0.48 | 0.492 | 0.4 | 0.456 | 0.457 | 0.708 | 0.698 | 0.712 | 0.748 | 0.728 | 0.647 | 0.686 | 0.704 | 0.664 | 0.723 | 0.909 | 0.839 | 0.955 | 0.8 | 0.825 |
| LK-2 | 0.17 | 0.22 | 0.182 | 0.165 | 0.23 | 0.254 | 0.266 | 0.346 | 0.256 | 0.231 | 0.382 | 0.385 | 0.191 | 0.183 | 0.29 | 1.24 | 1.02 | 0.977 | 0.586 |  |
| LOU-NH91 | 0.613 | 0.709 | 0.711 | 0.677 | 0.75 | 0.797 | 0.79 | 0.806 | 0.841 | 0.816 | 0.794 | 0.698 | 0.65 | 0.561 | 0.533 | 0.937 | 0.935 | 0.93 | 1.16 | 0.987 |
